{"source": "patent US20240343779A1", "about": "“PHARMACOLOGICAL AND/OR GENETIC ACTIVATOR FOR USE IN PRESERVING AND REGENERATING MUSCLE STRUCTURE AND FUNCTION BY BLOCKING SENESCENCE” (ASSOCIATION FRANCAISE CONTRE LES MYOPATHIES, priority 2021, published 2024)", "format_in_all_cases": "cell-based, rat", "key": {"[1]": {"tested_on": "myoblasts isolated from the WT EOMs", "test": "EdU proliferation of EOM-derived myoblasts treated with TSHR antagonist", "details": "10 μM, 2 days, serum-free, EdU pulse 24 h, vs DMSO", "protocol": "To evaluate the functional importance of the expression of TSHR in the MSCs of the EOMs, the myoblasts were isolated from the WT EOMs and treated with a selective antagonist of the TSH receptor, ML224 (Neumann et al., 2014).\n(§1) For this, the myoblasts derived from MSC were treated with 10 μM of ML224 (HY12381-S, CliniSciences) for 2 days (proliferation) or 7 days (differentiation) or 20 μM of forskolin (F3917, Sigma-Aldrich) (following experiment) only for 48 h. The control cells were treated with DMSO (D8418, Sigma Aldrich) as a vehicle for ML224 and forskolin.\nThe proliferation was measured after 24 h of culture by adding to the culture medium a pulse of […] of 5-ethynyl-20-deoxyuridine (EdU) for 24 h (EdU Click-iT PLUS Kit C10640, Life Technologies).\nThis experiment is carried out under serum-free conditions in order to prevent any stimulation of TSHR by the presence of TSH in the serum, which explains the lowest proliferative capacity of the myoblasts of the EOMs treated with the vehicle, relative to the data presented above (FIG. 3I)."}, "[2]": {"tested_on": "myoblasts isolated from the WT EOMs", "test": "Myogenic differentiation (MF20 staining, fusion index) of EOM myoblasts", "details": "10 μM, 7 days, vs DMSO", "protocol": "For this, the cells were fixed with 4% PFA for 10 minutes at 4° C. and permeabilized with 0.5% Triton in 1×PBS for 6 minutes. After blocking with 10% BSA for 30 minutes at room temperature, the cells were incubated O/N at 4° C. with the following primary antibodies: Pax7 (Santa Cruz Biotechnology, sc-81648), MyoD (Dako, clone 5.8A, M3512), ki67 (Abcam, sp6 ab16667), sarcomeric myosin heavy chain (MF20, DSHB, AB_2147781).\nThe cell suspension was passed through cell filters and centrifuged at 600 g/minute for 5 minutes, at 4° C. The supernatant was removed and the cell pellet was resuspended in 20% fetal bovine serum (Cat #S1810-500 Dominique Dutscher) in DMEM (Cat #41966-029 Gibco) supplemented by 25 ng/mL of bFGF (RP4037, Sigma-Aldrich) with […] of penicillin/streptomycin (354234, Life Sciences) covered with matrigel (Sarstedt, #94.6140.802). The cells were grown for 48 hours to evaluate the proliferation. After 48 h of proliferation, the cells were cultured for 5 days in 5% fetal bovine serum to induce differentiation.\nas §1"}, "[3]": {"tested_on": "Cdkn1a (p21) and Cdkn2a (p16) expression in EOM-derived myoblasts", "test": "qPCR of senescence markers in EOM-derived myoblasts", "details": "EOM satellite cells in culture, 10 μM, vs DMSO", "protocol": "The absence of Cdkn1a and Cdkn2a transcripts is also validated as well as the specific expression of TSHR on muscle satellite cells freshly isolated from EOMs by qRT-PCR (FIG. 6D): The RNA is extracted using the total RNA isolation kit RNAqueous-Micro (Invitrogen) and back-transcribed using SuperScript™ III reverse transcriptase (Invitrogen, 18080093) according to the manufacturer's instructions.\nThe qPCR is carried out using the StepOnePlus real-time PCR system (Applied Biosystems) and SYBR Green detection tools (Applied Biosystems).\nThe results are reported as relative gene expression (2-DDCT) using the vehicle-treated cells or the extra-ocular derived myoblasts as a reference. Gene expression is normalized on the expression levels of β-actin.\nas §1"}}}
{"smiles": "COc1ccc(C2Nc3ccccc3C(=O)N2Cc2ccco2)cc1COc1c(C)cc(NC(C)=O)cc1C", "note": "(centres unmarked) [ML224]", "values": [{"measurement": "Proliferative myoblasts (Pax7+/MyoD+/EdU+ cells) relative to vehicle", "setting": "[1]", "result": "significant decrease"}, {"measurement": "Differentiation / formation of myotubes", "setting": "[2]", "result": "differentiation defects"}, {"measurement": "Fusion index compared to vehicle control", "setting": "[2]", "result": "significant reduction"}, {"measurement": "Expression of Cdkn1a (p21)", "setting": "[3]", "result": "induced the expression"}, {"measurement": "Expression of Cdkn2a (p16)", "setting": "[3]", "result": "induced the expression"}]}
